Assay results taken from PubChem BioAssay AID504322 (Emory University Molecular Libraries Screening Center, 2011).
pIC50: −log10 of the molar value. The source made the active and inactive calls. The rule behind the calls is not given here.

Test system: CHOP reporter cell assay, percent of control
Test: CHOP reporter inhibitor potency, dose response, cell-based (AID 504322);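 note: CHO cells carrying a CHOP reporter stimulated with tunicamycin to induce ER stress; potency is for inhibition of the stress-induced reporter signal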

Row | SMILES | IC50 | pIC50
1 | CC(NC(=O)/C(C#N)=C/c1ccc(Cl)c([N+](=O)[O-])c1)c1ccccc1 (stereo not given) | 9.98 µM (inactive) | 
2 | CCCOC(=O)c1ccc(Oc2c(-c3ccc(OCC)cc3O)n[nH]c2C)cc1 |  | 5.63
3 | CCOC(=O)c1ccc(NC(=O)c2nc[nH]c2C(=O)N[C@@H](C)C(=O)OC(C)(C)C)cc1 | 5.92 µM (inactive) | 
4 | CCN1/C(=C/c2ccc3cc(C)ccc3[n+]2C)Sc2ccc3sccc3c21 | 5.29 µM (inactive) | 
5 | O=C1C(=O)c2ccc(-c3ccccc3)cc2-c2ccccc21 |  | 5.47
6 | Cc1nn(CCC#N)c2nc(-c3ccccc3)cc(C(F)(F)F)c12 | 4 µM (inactive) | 
7 | CCCCCCCCCCCCCCCC[n+]1ccc(/C=N/O)cc1 |  | 5.51
8 | O=C(Nc1ccc(F)cc1)Nc1ccc(N2CCCC2)c(S(=O)(=O)Nc2ccccc2Cl)c1 | 8.31 µM (inactive) | 
9 | O=C(On1c(-c2ccccc2)nc2ccccc2c1=O)c1ccco1 | > 10 µM (inactive) | 
10 | Cc1cc(C)c2c(c1)/C(=N/NS(=O)(=O)c1ccc(Br)cc1)CCC2 | 9.49 µM (inactive) | 
11 | CCSCCc1nnc(NC(=O)Nc2cccc(C(F)(F)F)c2)s1 | 6.82 µM (inactive) | 
12 | CC(=O)OCC1O[C@@H](O[C@@H]2C[C@H]3C(C)(C)[C@H](OC(C)=O)CC[C@]3(C)[C@H]3CC[C@]45C[C@]4(CC[C@H]5[C@@H](C)C[C@@H](O)[C@H](O)C(C)(C)O)[C@@]32C)[C@H](O)[C@@H](O)[C@@H]1O (stereo not given in full) | 5.96 µM (inactive) | 
13 | Cc1ccc(C2(c3ccc(C)cc3)CC2C(=O)Nc2ccc([N+](=O)[O-])cc2O)cc1 (stereo not given) | 8.64 µM (inactive) | 
14 | CCCc1cc(-c2nc(N)ncc2-c2ccc3c(c2)OCCCO3)c(O)cc1OC | 8.02 µM (inactive) | 
15 | CCOc1cccc(C(=O)Nc2cccc(-c3nnc(-c4ccc(C)cc4)o3)c2)c1 |  | 5.58
16 | COc1ccc(CC2(CO)CCN(CC3=Cc4cc(Cl)ccc4OC3)CC2)cc1 | 0.87 µM (inactive) | 
17 | CC1CCCC(NC(=O)COC(=O)/C=C/c2ccc3c(c2)OCO3)C1C (stereo not given) | > 10 µM (inactive) | 
18 | CC(C)Cn1c(N)c(C(=O)COC(=O)CC23CC4CC(CC(C4)C2)C3)c(=O)n(C)c1=O |  | 6.09
19 | CN1/C(=C\C=C\C2=[N+](C)c3ccc4ccccc4c3C2(C)C)C(C)(C)c2ccccc21 | 0.41 µM (inactive) | 
20 | Cc1cc(C)c2nc(C(F)(F)F)c(C#N)c(N)c2c1 | 8.25 µM (inactive) | 
21 | NC(=S)n1[nH]c(-c2ccc([N+](=O)[O-])cc2)c(N=Nc2cccc([N+](=O)[O-])c2)c1=O | 4.4 µM (inactive) | 
22 | O=c1c2ccccc2nc2n1CCN2Cc1ccc(Cl)cc1 | 9.8 µM (inactive) | 
23 | O=c1c(Cl)c(Cl)cnn1-c1ccccc1 | 9.45 µM (inactive) | 
24 | Cc1ccc(CNCC(O)(c2ccccc2)c2ccc(Cl)cc2)cc1 (stereo not given) | 9.63 µM (inactive) | 

Row | SMILES | IC50 | pIC50
25 | O=C(C1=C(c2ccccc2)C(=O)c2ccccc2C1=O)c1ccccc1 |  | 5.33
26 | CC(C)(C)c1ccc(NC(=O)Nc2ccc(F)cc2)cc1 | > 10 µM (inactive) | 
27 | O=C(Nc1ccccc1Cl)c1ccccc1Oc1ccc(C(F)(F)F)cc1[N+](=O)[O-] | 6.53 µM (inactive) | 
28 | COc1cc(/C=N/O)cc(Br)c1OCc1cccc(Cl)c1 | 6.16 µM (inactive) | 
29 | C/C=C/Cn1c(SCCCc2ccccc2)nc2c1c(=O)[nH]c(=O)n2C | > 10 µM (inactive) | 
30 | Cc1cc(O)c(NC(=S)NC(=O)c2ccc(-c3ccc(Cl)cc3)o2)cc1C |  | > 6.80
31 | C=CCSc1nc2ccccc2n1C(=O)/C=C/c1cc(OC)c(OC)c(OC)c1 |  | 5.38
32 | COc1cc([C@@H]2c3cc4c(cc3[C@@H](O)[C@@H](CO)[C@@H]2CO)OCO4)cc(OC)c1O[Si](C)(C)C(C)(C)C | 6.02 µM (inactive) | 
33 | CCOc1cc(C)c(-c2onc(C(F)(F)F)c2-c2csc(C)n2)c(O)c1 | > 10 µM (inactive) | 
34 | CN1CC(c2ccccc2)C2(SC(=S)N(Cc3ccco3)C2=O)C12C(=O)Nc1ccccc12 (stereo not given) | > 10 µM (inactive) | 
35 | CC1C/C(=C/c2ccccn2)C(=O)/C(=C/c2ccccn2)C1 (stereo not given) |  | 5.60
36 | C=CCOC(=O)C1=C(C)NC(SCC(=O)Nc2nccs2)=C(C#N)C1c1ccc(Cl)cc1 (stereo not given) | 9.67 µM (inactive) | 
37 | CCCCCc1c(C)nc(NCc2ccccc2)[nH]c1=O |  | 5.44
38 | Cc1cccc(NC2=C/C(=N/S(=O)(=O)c3cccs3)c3ccccc3C2=O)c1 |  | 5.35
39 | COc1ccc(C(=O)Nc2nnc(-c3ccco3)s2)cc1 | 8.58 µM (inactive) | 
40 | CC(=O)C(C(C)=O)c1c(Cl)c(O)c(O)c2c(C(=O)c3ccccc3)coc12 | 5.67 µM (inactive) | 
41 | CCCc1nc2oc(C(=O)c3ccccc3)c(N)c2c2c1COC(C)(C)C2 | > 10 µM (inactive) | 
42 | CN(CCCC[C@H](CNCc1ccc(-c2ccccc2)cc1)N1C[C@H](c2ccccc2)N(CCc2ccc(Cl)c(Cl)c2)C(=O)C1=O)Cc1ccc(-c2ccccc2)cc1 | 9.37 µM (inactive) | 
43 | Cc1cccc(/C=C2/S/C(=N/N=C3\CC4CCC3(C)C4(C)C)NC2=O)c1 (stereo not given) | 4.97 µM (inactive) | 
44 | OCCCNc1nccc(-c2cc(Nc3cccc(Cl)c3)ncn2)n1 |  | 6.52
45 | Cc1ccc2nc(Nc3ccc4[nH]c(=O)[nH]c4c3)c(-n3nc(C)cc3C)nc2c1 |  | 5.19
46 | CS(=O)(=O)c1nc(-c2cccs2)cc(C(F)(F)F)n1 |  | > 6.80
47 | O=C1c2ccccc2C(=O)C1c1nccc2ccccc12 | 5.41 µM (inactive) | 
48 | O=C(Nc1ccc(Br)c(C(F)(F)F)c1)c1ccc(C(F)(F)F)cc1 | 9.82 µM (inactive) | 

Row | SMILES | IC50 | pIC50
49 | COc1ccc(-c2cc(C3CCN(Cc4cccc(C(F)(F)F)c4)CC3)[nH]n2)cc1 | 4.11 µM (inactive) | 
50 | Nc1nnnn1/N=C/C(Br)=C/c1ccccc1 | 9.72 µM (inactive) | 
51 | Cc1ccc(-c2nc(N)sc2-c2ccc(C)cc2)cc1 | 9.83 µM (inactive) | 
52 | O=C(Nc1ccc(-c2nc3ccccc3o2)cc1)c1ccc(N2CCOCC2)c([N+](=O)[O-])c1 |  | 5.45
53 | CCCCCc1c(C)nc(Nc2ccccc2)[nH]c1=O | 9.72 µM (inactive) | 
54 | CC[C@@H]1CC=C[C@H]2[C@H]1C(=O)N(Cc1ccccc1)[C@H]2c1ccoc1 | 9.62 µM (inactive) | 
55 | CC1CCN(c2nc3ccc(C(=O)O)cc3s2)CC1 |  | 6.15
56 | NC(=O)c1ccc(C(F)(F)F)n(Cc2c(Cl)cccc2Cl)c1=O | 9.4 µM (inactive) | 
57 | Cc1ccc(C(=O)CC(=O)c2cc(Cl)ccc2O)cc1 | 5.51 µM (inactive) | 
58 | O=[N+]([O-])c1ccc(COc2ccc(-c3[nH]ncc3-c3ccccc3)c(O)c2)cc1 | 9.61 µM (inactive) | 
59 | Fc1ccc(-c2nn(-c3ccccc3)cc2CNCc2ccccc2)cc1 | 9.62 µM (inactive) | 
60 | CC(C)(C)C(=O)Nc1ccc(-c2nc3ccccc3c(=O)o2)cc1 | 0.7 µM (inactive) | 
61 | CSC(SC)=C(C#N)C(=O)c1ccccc1 | > 10 µM (inactive) | 
62 | O=C(Nc1cccc(Cl)c1Cl)c1cc(S(=O)(=O)NCCc2ccccc2)ccc1F | 9.57 µM (inactive) | 
63 | COc1cc(C(=O)OC(C)C(=O)NCC2CCCCC2)cc(NC(=O)c2ccco2)c1OC (stereo not given) | > 10 µM (inactive) | 
64 | O/N=C(\c1ccc(Cl)cc1Cl)c1ncc(C(F)(F)F)cc1Cl | 2.2 µM (inactive) | 
65 | COCCCn1c(N)c(C(=O)NCCC(C)C)c2nc3ccccc3nc21 | 9.46 µM (inactive) | 
66 | COc1cc(OC)cc(-c2nc3ccccc3c(=O)n2OC(=O)c2ccc(Br)cc2)c1 | > 10 µM (inactive) | 
67 | Cc1cc(Cl)n2c(nc3ccccc32)c1C#N | > 10 µM (inactive) | 
68 | OCCCNc1cc(-c2ccnc(Nc3cccc(Cl)c3)n2)ccn1 |  | > 6.80
69 | CC(C)(C)C1C/C(=C/c2ccccn2)C(=O)/C(=C/c2ccccn2)C1 (stereo not given) |  | 6.52
70 | Cc1ccc(Cn2c(SCC(=O)Nc3cc(C)on3)nc3ccccc3c2=O)cc1 | 5.78 µM (inactive) | 
71 | O=S1(=O)C=C(Sc2nc3ccccc3s2)c2ccccc21 |  | 5.90
72 | O=C1N(c2ccccc2)C[C@@H]2C[C@@H](c3cccs3)N3CCC[C@@]123 | 5.69 µM (inactive) | 

Row | SMILES | IC50 | pIC50
73 | Cc1ccc2[nH]c(O)c(N=NC(=O)CCc3ccccc3)c2c1Br |  | 5.37
74 | Cc1ccc(-c2nn(CC(=O)NCc3cc(-c4nn(C)c(=O)c5ccccc45)ccc3C)c(=O)c3ccccc23)cc1 | 9.88 µM (inactive) | 
75 | Cc1ccc2nc(NC(=O)C3CCN(S(=O)(=O)c4cc([N+](=O)[O-])ccc4Cl)CC3)sc2c1 |  | 5.45
76 | N=c1n(CC(=O)c2ccc([N+](=O)[O-])cc2)c2ccccc2n1Cc1ccc(Cl)cc1 | > 10 µM (inactive) | 
77 | O=C(CN1CCN(c2ncc(C(F)(F)F)cc2Cl)CC1)NCCNc1ncc(C(F)(F)F)cc1Cl |  | 5.41
78 | COc1cc(/C=C/c2nc(N)nc(-c3ccccc3O)n2)cc(OC)c1OC | > 10 µM (inactive) | 
79 | Oc1ccc(Oc2ccc3c(C(F)(F)F)cc(C(F)(F)F)nc3n2)cc1 | 9.36 µM (inactive) | 
80 | FC(F)(F)c1ccc(/C=N/NC(=S)NC2CCCCC2)cc1 |  | 5.30
81 | O=C(CCl)N(Cc1cccc([N+](=O)[O-])c1)c1cccc(Cl)c1 | 9.39 µM (inactive) | 
82 | CN1C(=O)/C(=C/c2cc(N=Nc3ccccc3)ccc2O)SC1=S | 4.49 µM (inactive) | 
83 | CCOC(=O)c1c2ccc(OCC(=O)N/N=C/c3ccc(C)cc3)cc2n2ccccc12 | 9.52 µM (inactive) | 
84 | O=C(CCCOc1ccc(Cl)cc1Cl)N/N=C\C1CCCCC1 | 5.03 µM (inactive) | 
85 | O=S(=O)(NC1CC1)c1ccc(S(=O)(=O)N2CCCC3(CCCCC3)C2)cc1 | 6.79 µM (inactive) | 
86 | CCOC(=O)c1c(/N=C/c2c(O)n(-c3cccc(C)c3)c(=O)[nH]c2=O)sc2c1CCCC2 |  | 5.62
87 | CCCC(=O)N1CCN(c2ccc(NC(=O)c3cc4ccccc4o3)cc2Cl)CC1 | 5.4 µM (inactive) | 
88 | Cc1ccc(NC(=O)CCl)cc1S(=O)(=O)N1CCCCCC1 | > 10 µM (inactive) | 
89 | O=C(N/N=C/c1cccs1)c1cccc(NC(=O)c2ccc(Cl)cc2)c1 |  | 5.38
90 | COc1ccc(NC(=O)/C(Cl)=C(/Cl)S(=O)(=O)Cc2ccc(C)cc2)cn1 | > 10 µM (inactive) | 
91 | O=C1C=CC(O)(c2cc(=O)c3c(O)cc(O)cc3o2)C=C1 |  | 5.59
92 | Cc1ccc(C(=O)N/C(=C\c2ccc(Br)cc2)c2nc(=S)[nH][nH]2)cc1 | 9.7 µM (inactive) | 
93 | COc1c(CC=C(C)C)cc(C2CC(=O)c3c(O)cc(O)cc3O2)cc1CC=C(C)C (stereo not given) | > 10 µM (inactive) | 
94 | NC(=O)CC(NC(=O)Cc1cccc2ccccc12)c1ccc(NCc2ccc(F)cc2)c([N+](=O)[O-])c1 (stereo not given) | > 10 µM (inactive) | 
95 | Cn1c2ccccc2c(=O)c2c(=O)n(C3CCCCCC3)c(C3CCCCC3)nc21 | 9.65 µM (inactive) | 
